According to paper PMC9687610, “Adenosine-Mimicking Derivatives of 3-Aminopyrazine-2-Carboxamide: Towards Inhibitors of Prolyl-tRNA Synthetase with Antimycobacterial Activity” (Biomolecules, 2022):
≈ marks a conversion by molar mass, not a printed value. Like-named read-outs stand apart in the source and are kept apart here.

Assays:
[1] = test system: Mycobacterium tuberculosis H37Ra ITM-M006710 (ATCC 9431); assay: Microplate Alamar Blue Assay (MABA), Mtb H37Ra; format: cell-based; conditions: Mycobacterium tuberculosis, 120 h
[2] = test system: Mycobacterium smegmatis DSM 43465 (ATCC 607); assay: Microplate Alamar Blue Assay (MABA), M. smegmatis; format: cell-based; conditions: Mycolicibacterium smegmatis, read-out: M. smegmatis MIC
[3] = test system: M. aurum DSM 43999 (ATCC 23366); assay: Microplate Alamar Blue Assay (MABA), M. aurum; format: cell-based; conditions: Mycolicibacterium aurum, read-out: M. aurum MIC
[4] = test system: Staphylococcus aureus subsp. aureus CCM 4223 (ATCC 29213); assay: Antibacterial microdilution broth (EUCAST), SA; format: cell-based; conditions: Staphylococcus aureus, read-out: SA MIC
[5] = test system: Staphylococcus aureus subsp. aureus methicillin-resistant (MRSA) CCM 4750 (ATCC 43300); assay: Antibacterial microdilution broth (EUCAST), MRSA; format: cell-based; conditions: Staphylococcus aureus, read-out: MRSA MIC
[6] = test system: Staphylococcus epidermidis CCM 4418 (ATCC 12228); assay: Antibacterial microdilution broth (EUCAST), SE; format: cell-based; conditions: read-out: SE MIC
[7] = test system: Enterococcus faecalis CCM 4224 (ATCC 29212); assay: Antibacterial microdilution broth (EUCAST), EF; format: cell-based; conditions: Enterococcus faecalis, read-out: EF MIC
[8] = test system: Escherichia coli CCM 3954 (ATCC 25922); assay: Antibacterial microdilution broth (EUCAST), EC; format: cell-based; conditions: Escherichia coli, read-out: EC MIC
[9] = test system: Acinetobacter baumannii DSM 30007 (ATCC 19606); assay: Antibacterial microdilution broth (EUCAST), ACI; format: cell-based; conditions: Acinetobacter baumannii, read-out: ACI MIC
[10] = test system: Pseudomonas aeruginosa CCM 3955 (ATCC 27853); assay: Antibacterial microdilution broth (EUCAST), PA; format: cell-based; conditions: Pseudomonas aeruginosa, read-out: PA MIC
[11] = test system: Candida albicans CCM 8320 (ATCC 24433); assay: Antifungal microdilution broth (EUCAST), CA; format: cell-based; conditions: Candida albicans, read-out: CA MIC
[12] = test system: Candida krusei CCM 8271 (ATCC 6258); assay: Antifungal microdilution broth (EUCAST), CK; format: cell-based; conditions: Pichia kudriavzevii, read-out: CK MIC
[13] = test system: Candida parapsilosis CCM 8260 (ATCC 22019); assay: Antifungal microdilution broth (EUCAST), CP; format: cell-based; conditions: Lodderomyces parapsilosis, read-out: CP MIC
[14] = test system: Candida tropicalis CCM 8264 (ATCC 750); assay: Antifungal microdilution broth (EUCAST), CT; format: cell-based; conditions: Candida tropicalis, read-out: CT MIC
[15] = test system: Aspergillus fumigatus ATCC 204305; assay: Antifungal microdilution broth (EUCAST), AF; format: cell-based; conditions: Aspergillus fumigatus, read-out: AF MIC
[16] = test system: Aspergillus flavus CCM 8363; assay: Antifungal microdilution broth (EUCAST), AFla; format: cell-based; conditions: Aspergillus flavus, read-out: AFla MIC
[17] = test system: Lichtheimia corymbifera CCM 8077; assay: Antifungal microdilution broth (EUCAST), LC; format: cell-based; conditions: Lichtheimia corymbifera, read-out: LC MIC
[18] = test system: Trichophyton interdigitale CCM 8377 (ATCC 9533); assay: Antifungal microdilution broth (EUCAST), TI; format: cell-based; conditions: Trichophyton interdigitale, 72 h, read-out: TI MIC
[19] = test system: HepG2 human hepatocellular carcinoma cells; assay: In vitro HepG2 cytotoxicity (CellTiter 96); conditions: Homo sapiens, HepG2, 24 h, read-out: HepG2 IC50, 24 h incubation; * limit = highest evaluated concentration (precipitation in medium); ** over the 1000 µM limit
[20] = test system: Klebsiella pneumoniae CCM 4415 (ATCC 10031); assay: Antibacterial microdilution broth (EUCAST), KP; conditions: read after 24 h
[21] = pH 6.6, MABA, Middlebrook 7H9 broth pH 6.6, resazurin after 120 h, read-out: Mtb H37Ra MIC

SMILES	MIC [1, 21] [µg/mL]	MIC ([2]; MABA, resazurin after 48 h) [µg/mL]	MIC ([3]; MABA, resazurin after 72 h) [µg/mL]	MIC ([4]; read after 24 h) [µM]	MIC ([5]; read after 24 h) [µM]	MIC ([6]; read after 24 h) [µM]	MIC ([7]; read after 24 h) [µM]	MIC ([8]; read after 24 h) [µM]	MIC ([9]; read after 24 h) [µM]	MIC ([10]; read after 24 h) [µM]	MIC ([11]; read after 24 h) [µM]	MIC ([12]; read after 24 h) [µM]	MIC ([13]; read after 24 h) [µM]	MIC ([14]; read after 24 h) [µM]	MIC ([15]; ATCC204305, read after 24 h) [µM]	MIC ([16]; CCM8363, read after 24 h) [µM]	MIC ([17]; CCM8077, read after 24 h) [µM]	MIC [18] [µM]	melting point [°C]	KP MIC [20] [µM]	also measured
O=c1[nH]c(-c2ccc(F)cc2)nc2nccnc12 [Compound 41]	≥ 500	≥ 500	≥ 500	> 125	> 125	> 125	> 125	> 125	> 125	> 125	> 125	> 125	> 125	> 125	> 125	> 125	> 125	> 125	277 to 279.5	> 125	IC50 [19]: > 1000 µM
NC(=O)c1nccnc1NC(=O)c1ccccc1O [Compound 22]	–	≥ 500	≥ 500	–	–	–	–	–	–	–	–	–	–	–	–	–	–	–	> 300	–	MIC ([1]; pH 6.6, read-out: Mtb H37Ra MIC, MABA, Middlebrook 7H9 broth pH 6.6, resazurin after 120 h): ≥ 500 µg/mL; IC50 [19]: > 250 µM
NC(=O)c1nccnc1NC(=O)c1ccc(N)cc1 [Compound 24, 3-(4-aminobenzamido)pyrazine-2-carboxamide]	125 (≈ 486 µM)	≥ 250	≥ 250	–	–	–	–	–	–	–	–	–	–	–	–	–	–	–	> 300	–	IC50 [19]: 929 µM
COC(=O)c1nccnc1NC(=O)c1ccc(F)cc1 [Compound 12e]	≥ 500	≥ 500	≥ 500	–	–	–	–	–	–	–	–	–	–	–	–	–	–	–	151.1 to 153.6	–	–
COC(=O)c1nccnc1NC(=O)c1ccccc1F [Compound 10e]	250 (≈ 908 µM)	≥ 500	≥ 500	–	–	–	–	–	–	–	–	–	–	–	–	–	–	–	123.2 to 125.4	–	–
COC(=O)c1nccnc1NC(=O)C12CC3CC(CC(C3)C1)C2 [Compound 28e]	≥ 125	–	–	–	–	–	–	–	–	–	–	–	–	–	–	–	–	> 125	225.6 to 227.2	> 125	MIC ([2]; 48 h): ≥ 125 µg/mL; MIC ([3]; 72 h): ≥ 125 µg/mL; MIC ([4]; 24 h): > 125 µM; MIC ([5]; 24 h): > 125 µM; MIC ([6]; 24 h): > 125 µM; MIC ([7]; 24 h): > 125 µM; MIC ([8]; 24 h): > 125 µM; MIC ([9]; 24 h): > 125 µM; MIC ([10]; 24 h): > 125 µM; MIC ([11]; 24 h): > 125 µM; MIC ([12]; 24 h): > 125 µM; MIC ([13]; 24 h): > 125 µM; MIC ([14]; 24 h): > 125 µM; MIC ([15]; ATCC204305, 24 h): > 125 µM; MIC ([16]; CCM8363, 24 h): > 125 µM; MIC ([17]; CCM8077, 24 h): > 125 µM
COC(=O)c1nccnc1NC(=O)c1ccccc1Br [Compound 16e]	125 (≈ 372 µM)	≥ 500	≥ 500	> 500	> 500	> 500	> 500	> 500	> 500	> 500	> 500	> 500	> 500	> 500	> 500	> 500	> 500	> 500	168.4 to 169.2	> 500	–
COC(=O)c1nccnc1NC(=O)c1ccc(Br)cc1 [Compound 18e]	≥ 500	≥ 500	≥ 500	> 500	> 500	> 500	> 500	> 500	> 500	> 500	> 500	> 500	> 500	> 500	> 500	> 500	> 500	> 500	195.1 to 197	> 500	–
COC(=O)c1nccnc1NC(=O)c1ccccc1Cl [Compound 13e]	≥ 500	250 (≈ 857 µM)	≥ 500	–	–	–	–	–	–	–	–	–	–	–	–	–	–	–	114.5 to 115.6	–	–
COC(=O)c1nccnc1NC(=O)c1cccc(Cl)c1 [Compound 14e]	250 (≈ 857 µM)	125 (≈ 429 µM)	250 (≈ 857 µM)	> 500	> 500	> 500	> 500	> 500	> 500	> 500	> 500	> 500	> 500	> 500	> 500	> 500	> 500	> 500	146.3 to 147.1	> 500	–
COC(=O)c1nccnc1NC(=O)c1ccc(C)cc1 [Compound 4e]	250 (≈ 922 µM)	62.5 (≈ 230 µM)	250 (≈ 922 µM)	> 500	> 500	> 500	> 500	> 500	> 500	> 500	> 500	> 500	> 500	> 500	> 500	> 500	> 500	> 500	158.9 to 161.2	> 500	–
COC(=O)c1nccnc1NC(=O)c1cccc(Br)c1 [Compound 17e]	≥ 500	≥ 500	≥ 500	> 500	> 500	> 500	> 500	> 500	> 500	> 500	> 500	> 500	> 500	> 500	> 500	> 500	> 500	> 500	123.3 to 125.2	> 500	–
COC(=O)c1nccnc1NC(=O)c1cccc(F)c1 [Compound 11e]	250 (≈ 908 µM)	≥ 500	≥ 500	–	–	–	–	–	–	–	–	–	–	–	–	–	–	–	135.5 to 136.3	–	–
COC(=O)c1nccnc1NC(=O)C1CCCCC1 [Compound 27e]	≥ 500	125 (≈ 475 µM)	≥ 500	> 500	> 500	> 500	> 500	> 500	> 500	> 500	> 500	> 500	> 500	> 500	> 500	> 500	> 500	> 500	106.9 to 108.3	> 500	–
COC(=O)c1nccnc1NC(=O)c1ccc(OC)cc1 [Compound 9e]	≥ 500	≥ 500	≥ 500	> 500	> 500	> 500	> 500	> 500	> 500	> 500	> 500	> 500	> 500	> 500	> 500	> 500	> 500	> 500	144.5 to 145	> 500	–
NC(=O)c1nccnc1NC(=O)c1ccc(O)cc1 [Compound 23]	≥ 500	≥ 500	≥ 500	–	–	–	–	–	–	–	–	–	–	–	–	–	–	–	243.7 to 245.1	–	IC50 [19]: > 500 µM
